In patent US12410171B2, “Tropomyosin receptor kinase (TRK) degradation compounds and methods of use” (Cullgen (Shanghai), Inc., priority 2020, dated 2025):
Where two headings read alike, the source gives them in different places.

Target: T1, TPM3-TRKA fusion protein (Homo sapiens, UniProt P04629)
T1 construct: The resulted chimeric proteins always retain the kinase domain of TRK proteins; TPM3 (fusion partner, N-terminal part of tropomyosin alpha-3, P06753); endogenous in cells; host or cells: KM12 colon cancer cells; the other entry of the earlier key: TPM3 (P06753, Tropomyosin alpha-3 chain)
T1 sequence (P04629 with tags, fused parts or gaps): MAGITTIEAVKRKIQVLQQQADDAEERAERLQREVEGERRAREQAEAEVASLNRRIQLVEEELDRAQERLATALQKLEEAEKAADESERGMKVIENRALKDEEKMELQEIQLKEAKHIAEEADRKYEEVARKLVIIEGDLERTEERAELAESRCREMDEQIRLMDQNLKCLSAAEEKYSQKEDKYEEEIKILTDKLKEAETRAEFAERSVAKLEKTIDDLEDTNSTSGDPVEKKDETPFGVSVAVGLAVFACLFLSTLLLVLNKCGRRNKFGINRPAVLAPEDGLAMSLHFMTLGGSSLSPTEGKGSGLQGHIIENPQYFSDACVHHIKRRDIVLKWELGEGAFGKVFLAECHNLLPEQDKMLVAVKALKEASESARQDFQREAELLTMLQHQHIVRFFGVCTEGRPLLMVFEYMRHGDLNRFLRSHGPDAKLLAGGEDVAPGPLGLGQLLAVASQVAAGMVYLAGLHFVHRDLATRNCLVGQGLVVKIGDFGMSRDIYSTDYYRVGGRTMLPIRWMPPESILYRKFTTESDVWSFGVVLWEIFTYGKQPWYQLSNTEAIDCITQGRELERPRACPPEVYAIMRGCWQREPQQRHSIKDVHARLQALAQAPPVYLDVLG
Assay: TPM3-TRKA fusion protein levels in KM12 cells (Western blot)
Format: cell-based
Conditions: read-out: Degradation (at 10 nM)
Outline: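 TPM3-TRKA levels were assessed by Western blot with chemiluminescent detection and band densitometry, after SDS-PAGE of BCA-normalized RIPA lysates. Before lysis, KM12 cells received DMSO, compounds or matched control compounds at concentrations including 0.1, 1, 10 and 100 nM and 0.4–30 nM. Exposures lasted 4 h, 8–16 h or 16 h.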

[1] = 16 h, TPM3-TRKA degradation in KM12 cells at 10 nM compound, category of percentage degradation

Structure (SMILES)	percent degradation of TPM3-TRKA protein at 0.01 µM [1] [%]	percent degradation of TPM3-TRKA protein at 0.01 µM (KM12, 16 h) [%]
O=C1CCC(N2C(=O)c3ccc(N4CCC(CN5CCN(c6cccc(-c7cnc8ccc(N9CCC[C@@H]9c9cccc(F)c9)nn78)n6)CC5)CC4)cc3C2=O)C(=O)N1 (stereo partly drawn) [TR-226, 2-(2,6-dioxopiperidin-3-yl)-5-(4-((4-(6-(6-((R)-2-(3-fluorophenyl)pyrrolidin-1-yl)imidazo[1,2-b]pyridazin-3-yl)pyridin-2-yl)piperazin-1-yl)methyl)piperidin-1-yl)isoindoline-1,3-dione]	> 80	–
O=C1CCC(N2C(=O)c3ccc(NCCN4CCN(c5ccc(C(=O)Nc6n[nH]c7ccc(Cc8cc(F)cc(F)c8)cc67)c(NC6CCOCC6)c5)CC4)cc3C2=O)C(=O)N1 (stereo not drawn) [TR-232, N-(5-(3,5-difluorobenzyl)-1H-indazol-3-yl)-4-(4-(2-((2-(2,6-dioxopiperidin-3-yl)-1,3-dioxoisoindolin-5-yl)amino)ethyl)piperazin-1-yl)-2-((tetrahydro-2H-pyran-4-yl)amino)benzamide]	> 80	–
O=C1CCC(N2C[C@H](c3cccc(CN4CCN(c5cccc(-c6cnc7ccc(N8CCC[C@@H]8c8cccc(F)c8)nn67)n5)CC4)c3)OC2=O)C(=O)N1 (stereo partly drawn) [TR-235, 3—((S)-5-(3-((4-(6-(6-((R)-2-(3-Fluorophenyl)pyrrolidin-1-yl)imidazo[1,2-b]pyridazin-3-yl)pyridin-2-yl)piperazin-1-yl)methyl)phenyl)-2-oxooxazolidin-3-yl)piperidine-2,6-dione]	50 to 80	–
Cn1c(=O)n(C2CCC(=O)NC2=O)c2cccc(OCCCN3CCN(c4cccc(-c5cnc6ccc(N7CCC[C@@H]7c7cccc(F)c7)nn56)n4)CC3)c21 (stereo partly drawn) [TR-245]	–	< 50

The next lines start with results.

percent degradation of TPM3-TRKA protein at 0.01 µM [1] [%]	Structure (SMILES)	percent degradation of TPM3-TRKA protein at 0.01 µM (KM12, 16 h) [%]
50 to 80	O=C1CCC(N2Cc3cc(NCC4CCN(c5cccc(-c6cnc7ccc(N8CCC[C@@H]8c8cccc(F)c8)nn67)n5)CC4)ccc3C2=O)C(=O)N1 (stereo partly drawn) [TR-218, 3-(5-(((1-(6-(6-((R)-2-(3-fluorophenyl)pyrrolidin-1-yl)imidazo[1,2-b]pyridazin-3-yl)pyridin-2-yl)piperidin-4-yl)methyl)amino)-1-oxoisoindolin-2-yl)piperidine-2,6-dione]	–
50 to 80	O=C1CCC(N2Cc3cc(C#CC4CN(c5cccc(-c6cnc7ccc(N8CCC[C@@H]8c8cccc(F)c8)nn67)n5)C4)ccc3C2=O)C(=O)N1 (stereo partly drawn) [TR-219, 3-(5-((1-(6-(6-((R)-2-(3-Fluorophenyl)pyrrolidin-1-yl)imidazo[1,2-b]pyridazin-3-yl)pyridin-2-yl)azetidin-3-yl)ethynyl)-1-oxoisoindolin-2-yl)piperidine-2,6-dione]	–
> 80	Cn1c(=O)n(C2CCC(=O)NC2=O)c2ccc(NCCN3CCN(c4cccc(-c5cnc6ccc(N7CCC[C@@H]7c7cccc(F)c7)nn56)n4)CC3)cc21 (stereo partly drawn) [TR-220, 3-(5-((2-(4-(6-(6-((R)-2-(3-Fluorophenyl)pyrrolidin-1-yl)imidazo[1,2-b]pyridazin-3-yl)pyridin-2-yl)piperazin-1-yl)ethyl)amino)-3-methyl-2-oxo-2,3-dihydro-1H-benzo[d]imidazol-1-yl)piperidine-2,6-dione]	–
50 to 80	O=C1CCC(N2C[C@H](c3cccc(C#CCN4CCN(c5cccc(-c6cnc7ccc(N8CCC[C@@H]8c8cccc(F)c8)nn67)n5)CC4)c3)OC2=O)C(=O)N1 (stereo partly drawn) [TR-223, 3-((S)-5-(3-(3-(4-(6-(6-((R)-2-(3-fluorophenyl)pyrrolidin-1-yl)imidazo[1,2-b]pyridazin-3-yl)pyridin-2-yl)piperazin-1-yl)prop-1-yn-1-yl)phenyl)-2-oxooxazolidin-3-yl)piperidine-2,6-dione]	–
50 to 80	O=C1CCC(N2C[C@H](c3ccc(CN4CCN(c5cccc(-c6cnc7ccc(N8CCC[C@@H]8c8cccc(F)c8)nn67)n5)CC4)cc3)OC2=O)C(=O)N1 (stereo partly drawn) [TR-229, 3-((S)-5-(4-((4-(6-(6-((R)-2-(3-fluorophenyl)pyrrolidin-1-yl)imidazo[1,2-b]pyridazin-3-yl)pyridin-2-yl)piperazin-1-yl)methyl)phenyl)-2-oxooxazolidin-3-yl)piperidine-2,6-dione]	–
